Results reported in patent publication US12076330B2, “Inhibition of lipofuscin aggregation by molecular tweezers” (The Regents of the University of California, priority 2018, dated 2024).
“Also recorded” adds a separate entry of the source.

Experiments:
Type in all cases: cell-based, human
[1] = system: lipofuscin (A2E) aggregation in ARPE-19 cells (retinal pigmented epithelium); test: Lipofuscin A2E accumulation/aggregation in ARPE-19 cells, fluorescence microscopy after 6 h
Protocol: (§1) Panel A) CLR01 in PBS and lipofuscin A2E were added to the cells at the indicated times. Cells were incubated up to 6 h in all cases and were imaged using a fluorescence microscope for visualization of lipofuscin autofluorecence (red) and cell nuclei (DAPI, blue). Panel B) Quantification of the data shown in panel A (N=15 per condition). C) Confocal microscopy images showing that lipofuscin colocalizes with the Lysosomal-membrane marker lamp1.
To test the effect of CLR01 on lipofuscin aggregation, human, ARPE-19 cells (retinal pigmented epithelium; RPE) were treated with lipofuscin (A2E) in the absence or presence of CLR01 and imaged by fluorescence microscopy at the end of 6 h of incubation (FIG. 1, panel A), as follows: • Condition 1—negative control—20 μl of PBS was added to the cells at t=0 and 20 μl of DMSO at t=1.5 h. • Condition 2—safety control—CLR01 in PBS at final concentration of 100 μM was added to the cells at t=0 and DMSO at t=1.5 h. • Condition 3—positive control—PBS was added to the cells at t=0 and lipofuscin A2E in DMSO at final concentration of 100 μM at t=1.5 h. Lipofuscin A2E is a specific type of lipofuscin enriched in N-retinylidene-N-retinylethanolamine (A2E), which is derived from 11-cis-retinal and accumulates in the retinal pigmented epithelium (Boyer et al. (2012) J. Biol. Chem. 287: 22276-22286). • Condition 4—CLR01 in PBS at final concentration of 100 μM was added to the cells at t=0, after 1.5 h, the media was removed, the cells were washed with F12 medium, and new media was added. Lipofuscin A2E in DMSO at final concentration of 100 μM was added at t=1.5 h. • Condition 5—Lipofuscin A2E in DMSO was added to the cells at t=0 and CLR01 in PBS at final concentration of 100 μM was added at t=1 h.

[2] = system: lysosomes (LAMP-1) in ARPE-19 cells; test: Confocal imaging of lipofuscin A2E and LAMP-1 in ARPE-19 cells
Protocol: as §1

[3] = system: pre-formed lipofuscin (A2E) aggregates in ARPE-19 cells; test: Effect on pre-formed lipofuscin aggregates in ARPE-19 cells (A2E 10 h, wash, CLR01 12 h); details: A2E 100 μM for 10 h, CLR01 100 μM for 12 h
Protocol: FIG. 2, panel A) CLR01 in PBS and lipofuscin A2E were added to the cells at the indicated times. Cells were incubated up to 22 hours in all cases and were imaged using a fluorescence microscope for visualization of lipofuscin autofluorecence (red) and cell nuclei (DAPI, blue). FIG. 2, panel B) Quantification of the data shown in […] (N=15 per condition). Condition 1—negative control—20 μl of DMSO was added to the cells at t=0. After 10 h, the media was removed, the cells were washed with F12 medium, and new media was added. Condition 2—positive control—Lipofuscin A2E in DMSO at final concentration of 100 μM was added to the cells at t=0. After 10 h, the media was removed, the cells were washed with F12 medium, and new media was added. Condition 3—Lipofuscin A2E in DMSO was added to the cells at t=0. After 10 h, the media was removed, the cells were washed with F12 medium, and new media was added. CLR01 in PBS at final concentration of 100 μM was added at t=10 h.
The effect of CLR01 on pre-formed lipofuscin aggregates was tested as well. Human, ARPE-19 cells were treated with lipofuscin (A2E) for 10 h (to let lipofuscin aggregates form). Upon washing the cells to remove A2E from the media, CLR01 was added to the medium for an additional period of 12 h. Cells were then imaged by fluorescence microscopy and fluorescence quantified (FIG. 2). […]

lysosome integrity [2]: lysosome integrity was not affected
Substance: CLR01
inhibition of lipofuscin accumulation and aggregation (overall finding) ([1]; ARPE-19 retinal cells, CLR01 100 μM, lipofuscin A2E 100 μM): inhibits lipofuscin accumulation and aggregation; also recorded: powerfully inhibits the formation of lipofuscin aggregates
harm to the cells (safety control) ([1]; condition 2: CLR01 100 μM at t=0, DMSO at t=1.5 h, no A2E, ARPE-19 cells, 6 h): did not harm the cells
reduction of the accumulation of lipofuscin aggregates at 6 h ([1]; condition 4: CLR01 100 μM at t=0, washed out after 1.5 h, then lipofuscin A2E 100 μM, ARPE-19 cells, 6 h): ~60%
accumulation of lipofuscin aggregates ([1]; condition 5: lipofuscin A2E at t=0, CLR01 100 μM added at t=1 h, ARPE-19 cells, 6 h): reduced almost to the negative-control level
clearing effect compared with condition 5 of FIG. 1 (CLR01 added simultaneously with lipofuscin loading) [3]: lower
